Experimental data as given in patent US20240391862A1, “(1,4,5-TRISUBSTITUTED-1H-PYRAZOL-3-YL)OXY-2-ALKOXY ALKYL ACIDS AND THEIR DERIVATIVES, THEIR SALTS AND THEIR USE AS HERBICIDAL AGENTS” (Bayer AKtiengesellschaft, priority 2021, published 2024).

Key:
TRZAS = assay: Post-emergence herbicidal effect and crop plant compatibility, greenhouse pot test; assay type: in vivo, Triticum aestivum; conditions: 20 g/ha, one-leaf stage, rated visually after about 3 weeks vs untreated controls; for percent crop injury (phytotoxicity) to wheat, post-emergence at 20 g/ha: Triticum aestivum, 504 h, read-out: Post-emergence effect at 20 g/ha against TRZAS in %
Procedure, shortened: (§1)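 Greenhouse pot plants in sandy loam receive a one-leaf-stage spray at 20 to 320 g/ha. Activity is assessed visually around 3 weeks afterwards on a 0–100% scale, where 100% means the plants have died.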

ABUTH = assay: Post-emergence herbicidal effect, greenhouse pot test; assay type: in vivo, Abutilon theophrasti; conditions: visual rating about 3 weeks after treatment
Procedure, shortened: (§2)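 Weeds sown in sandy loam, greenhouse-grown 2–3 weeks, then sprayed at one-leaf stage with WP or EC formulations in water plus 0.5% additive at 600 l/ha. Rates 20 to 320 g/ha. Visual rating after about 3 weeks versus untreated controls (100% = plants dead, 0% = like control).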

ALOMY = assay: as above; assay type: in vivo, Alopecurus myosuroides; conditions: 320 g/ha, visual rating about 3 weeks after treatment; for pest or weed control at 320 g/ha: Alopecurus myosuroides, 504 h, read-out: Post-emergence effect against ALOMY
Procedure, shortened: as §2

AMARE = assay: as above; assay type: in vivo, Amaranthus retroflexus; conditions: visual rating about 3 weeks after treatment
Procedure, shortened: as §2

AVEFA = assay: as above; assay type: in vivo, Avena fatua; conditions: visual rating about 3 weeks after treatment; for pest or weed control at 320 g/ha: Avena fatua, 504 h, read-out: Post-emergence effect against AVEFA
Procedure, shortened: as §2

DIGSA = assay: as above; assay type: in vivo, Digitaria sanguinalis; conditions: 320 g/ha, visual rating about 3 weeks after treatment; for pest or weed control at 320 g/ha: Digitaria sanguinalis, 504 h, read-out: Post-emergence effect against DIGSA
Procedure, shortened: as §2

ECHCG = assay: as above; assay type: in vivo, Echinochloa crus-galli
Procedure, shortened: as §2

LOLRI = assay: as above; assay type: in vivo, Lolium rigidum; conditions: for pest or weed control at 320 g/ha: Lolium rigidum, 504 h, read-out: Post-emergence effect against LOLRI in %
Procedure, shortened: as §2

MATIN = assay: as above; assay type: in vivo, Tripleurospermum inodorum
Procedure, shortened: as §2

PHBPU = assay: as above; assay type: in vivo, Ipomoea purpurea; conditions: for pest or weed control at 80 g/ha / pest or weed control at 320 g/ha: Ipomoea purpurea, 504 h, read-out: Post-emergence effect against PHBPU in %
Procedure, shortened: as §2

POLCO = assay: as above; assay type: in vivo, Fallopia convolvulus; conditions: for pest or weed control at 80 g/ha / pest or weed control at 320 g/ha: Fallopia convolvulus, 504 h, read-out: Post-emergence effect against POLCO in %
Procedure, shortened: as §2

SETVI = assay: as above; assay type: in vivo, Setaria viridis
Procedure, shortened: as §2

VERPE = assay: as above; assay type: in vivo, Veronica persica
Procedure, shortened: as §2

VIOTR = assay: as above; assay type: in vivo, Viola tricolor; conditions: for pest or weed control at 80 g/ha / pest or weed control at 320 g/ha: Viola tricolor, 504 h, read-out: Post-emergence effect against VIOTR in %
Procedure, shortened: as §2

ZEAMX = assay: Post-emergence herbicidal effect and crop plant compatibility, greenhouse pot test; assay type: in vivo, Zea mays; conditions: one-leaf stage, rated visually after about 3 weeks vs untreated controls; for plant injury at 20 g/ha: read-out: Post-emergence effect at 20 g/ha against ZEAMX in %
Procedure, shortened: as §1

KCHSC = assay: Post-emergence herbicidal effect, greenhouse pot test; assay type: in vivo
Procedure, shortened: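 Visual rating of activity against untreated plants (100% = plants died, 0% = no effect), done about 3 weeks after treatment. Compounds applied at 20–320 g/ha as aqueous spray (600 l/ha, 0.5% additive) from WP or EC formulations onto one-leaf-stage plants grown in sandy loam under greenhouse conditions.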

[1] = Abutilon theophrasti, 504 h, 320 g/ha, read-out: Post-emergence effect against ABUTH
[2] = Amaranthus retroflexus, 504 h, 320 g/ha, read-out: Post-emergence effect against AMARE
[3] = Echinochloa crus-galli, 504 h, 320 g/ha, read-out: Post-emergence effect against ECHCG in %
[4] = Veronica persica, 504 h, 80 g/ha, read-out: Post-emergence effect against VERPE in %
[5] = Veronica persica, 504 h, 320 g/ha, read-out: Post-emergence effect against VERPE in %

Compound: COC(=O)CCOC(=O)C(OC)Oc1nn(-c2cc(F)ccc2F)c(-c2cncc(F)c2)c1C1CC1 (single isomer, unassigned) [Example I-78]
- Post-emergence effect at 20 g/ha against TRZAS in % (TRZAS): 0%
- Post-emergence effect against ABUTH (ABUTH; 20 g/ha): 80%
- Post-emergence effect against ABUTH (ABUTH; 80 g/ha): 80%
- Post-emergence effect against ABUTH (ABUTH; 320 g/ha): 80%
- Post-emergence effect against ALOMY (ALOMY): 90%
- Post-emergence effect against AMARE (AMARE; 80 g/ha): 90%
- Post-emergence effect against AMARE (AMARE; 320 g/ha): 90%
- Post-emergence effect against AVEFA (AVEFA; 80 g/ha): 90%
- Post-emergence effect against AVEFA (AVEFA; 320 g/ha): 90%
- Post-emergence effect against DIGSA (DIGSA): 80%
- Post-emergence effect against ECHCG (ECHCG; 20 g/ha, visual rating about 3 weeks after treatment): 90%
- Post-emergence effect against ECHCG in % (ECHCG; 80 g/ha): 90%
- Post-emergence effect against ECHCG in % (ECHCG; 320 g/ha): 90%
- Post-emergence effect against LOLRI in % (LOLRI; 80 g/ha): 90%
- Post-emergence effect against LOLRI in % (LOLRI; 320 g/ha): 90%
- Post-emergence effect against MATIN in % (MATIN; 20 g/ha): 80%
- Post-emergence effect against MATIN in % (MATIN; 80 g/ha): 90%
- Post-emergence effect against MATIN in % (MATIN; 320 g/ha): 90%
- Post-emergence effect against PHBPU in % (PHBPU; 20 g/ha): 80%
- Post-emergence effect against PHBPU in % (PHBPU; 80 g/ha): 90%
- Post-emergence effect against PHBPU in % (PHBPU; 320 g/ha): 90%
- Post-emergence effect against POLCO in % (POLCO; 80 g/ha): 90%
- Post-emergence effect against POLCO in % (POLCO; 320 g/ha): 90%
- Post-emergence effect against SETVI in % (SETVI; 80 g/ha): 90%
- Post-emergence effect against SETVI in % (SETVI; 320 g/ha): 90%
- Post-emergence effect against VERPE in % (VERPE; 20 g/ha): 80%
- Post-emergence effect against VERPE in % (VERPE; 80 g/ha): 90%
- Post-emergence effect against VERPE in % (VERPE; 320 g/ha): 90%
- Post-emergence effect against VIOTR in % (VIOTR; 20 g/ha): 80%
- Post-emergence effect against VIOTR in % (VIOTR; 80 g/ha): 90%
- Post-emergence effect against VIOTR in % (VIOTR; 320 g/ha): 90%

Compound: COC(=O)C(OC)Oc1nn(-c2ncccc2F)c(-c2ccc(F)nc2)c1Cl (centres unmarked) [Example I-38]
- plant injury at 20 g/ha (ZEAMX; Zea mays, 504 h, 20 g/ha): 0%
- percent crop injury (phytotoxicity) to wheat, post-emergence at 20 g/ha (TRZAS): 0%
- pest or weed control at 320 g/ha (ABUTH; [1]): 80%
- pest or weed control at 320 g/ha (ALOMY): 100%
- pest or weed control at 80 g/ha (AMARE; Amaranthus retroflexus, 504 h, 80 g/ha, read-out: Post-emergence effect against AMARE): 90%
- pest or weed control at 320 g/ha (AMARE; [2]): 90%
- pest or weed control at 320 g/ha (AVEFA; 320 g/ha): 90%
- pest or weed control at 320 g/ha (DIGSA): 90%
- pest or weed control at 320 g/ha (ECHCG; [3]): 100%
- pest or weed control at 320 g/ha (LOLRI; 320 g/ha): 100%
- pest or weed control at 80 g/ha (PHBPU; 80 g/ha): 90%
- pest or weed control at 320 g/ha (PHBPU; 320 g/ha): 90%
- pest or weed control at 80 g/ha (POLCO; 80 g/ha): 90%
- pest or weed control at 320 g/ha (POLCO; 320 g/ha): 90%
- pest or weed control at 320 g/ha (SETVI; Setaria viridis, 504 h, 320 g/ha, read-out: Post-emergence effect against SETVI in %): 90%
- pest or weed control at 20 g/ha (VERPE; Veronica persica, 504 h, 20 g/ha, read-out: Post-emergence effect against VERPE in %): 80%
- pest or weed control at 80 g/ha (VERPE; [4]): 80%
- pest or weed control at 320 g/ha (VERPE; [5]): 100%
- pest or weed control at 80 g/ha (VIOTR; 80 g/ha): 80%
- pest or weed control at 320 g/ha (VIOTR; 320 g/ha): 90%

Compound: CCOC(=O)C(OC)Oc1nn(-c2cnccn2)c(-c2ccc(F)nc2)c1Br (centres unmarked) [Example I-47]
- plant injury at 20 g/ha (ZEAMX; Zea mays, 504 h, 20 g/ha): 0%
- plant injury at 80 g/ha (ZEAMX; Zea mays, 504 h, 80 g/ha, read-out: Post-emergence effect at 80 g/ha against ZEAMX in %): 0%
- percent crop injury (phytotoxicity) to wheat, post-emergence at 20 g/ha (TRZAS): 0%
- pest or weed control at 80 g/ha (ABUTH; Abutilon theophrasti, 504 h, 80 g/ha, read-out: Post-emergence effect against ABUTH): 80%
- pest or weed control at 320 g/ha (ABUTH; [1]): 90%
- pest or weed control at 320 g/ha (AMARE; [2]): 80%
- pest or weed control at 320 g/ha (AVEFA; 320 g/ha): 80%
- pest or weed control at 320 g/ha (DIGSA): 80%
- pest or weed control at 80 g/ha (ECHCG; Echinochloa crus-galli, 504 h, 80 g/ha, read-out: Post-emergence effect against ECHCG in %): 90%
- pest or weed control at 320 g/ha (ECHCG; [3]): 90%
- pest or weed control at 320 g/ha (LOLRI; 320 g/ha): 90%
- pest or weed control at 80 g/ha (PHBPU; 80 g/ha): 80%
- pest or weed control at 320 g/ha (PHBPU; 320 g/ha): 90%
- pest or weed control at 80 g/ha (POLCO; 80 g/ha): 80%
- pest or weed control at 320 g/ha (POLCO; 320 g/ha): 80%
- pest or weed control at 80 g/ha (VERPE; [4]): 80%
- pest or weed control at 320 g/ha (VERPE; [5]): 90%
- pest or weed control at 80 g/ha (VIOTR; 80 g/ha): 80%
- pest or weed control at 320 g/ha (VIOTR; 320 g/ha): 90%
- pest or weed control at 80 g/ha (KCHSC; 504 h, 80 g/ha, read-out: Post-emergence effect against KCHSC in %): 90%
- pest or weed control at 320 g/ha (KCHSC; 504 h, 320 g/ha, read-out: Post-emergence effect against KCHSC in %): 90%

Compound: COC(Oc1nn(-c2ncccc2F)c(-c2ccc(F)nc2)c1C1CC1)C(=O)O (centres unmarked) [Example I-89]
- Post-emergence effect at 20 g/ha against ZEAMX in % (ZEAMX; 20 g/ha): 0%
- Post-emergence effect at 80 g/ha against ZEAMX in % (ZEAMX; 80 g/ha): 0%
- Post-emergence effect at 20 g/ha against TRZAS in % (TRZAS): 0%
- pest or weed control at 320 g/ha (ALOMY): 90%
- Post-emergence effect against AVEFA (AVEFA; 320 g/ha): 80%
- pest or weed control at 320 g/ha (LOLRI; 320 g/ha): 90%
- Post-emergence effect against POLCO in % (POLCO; 320 g/ha): 90%
- Post-emergence effect against KCHSC in % (KCHSC; 320 g/ha): 90%
